Experiments:
FKBP51 = target: T1, FKBP51 (Homo sapiens, UniProt Q13451); experiment: Fluorescence polarization (FP) assay, binding to the FK506-binding domain of FKBP51; conditions: FK506-binding domain of FKBP51 (FKBP51FK1), competition with fluorescent ligand 2b
T1 sequence (Q13451 42-130 limits assumed): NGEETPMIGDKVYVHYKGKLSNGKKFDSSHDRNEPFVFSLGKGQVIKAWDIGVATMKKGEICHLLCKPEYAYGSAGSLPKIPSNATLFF
Procedure: (§1) In the present invention, in vitro fluorescence polarization assays with the compounds of the general formula (I) were performed to determine the binding affinities to FKBP51 and FKBP52 or to the isolated FK506-binding domains of FKBP51 and FKBP52 ([…]). Binding to the isolated FK506-binding domains is reliably indicative of binding to the full length proteins. The affinities for the isolated FK506-binding domains and for full-length FKBP51 or FKBP52 are the same for all compounds tested so far (Kozany et al, ChemBioChem 2009, 10, 1402-1410).
(§2) Example 11: Fluorescence Polarization (FP) Assays
(§3) In-vitro fluorescence polarization assays were performed to determine the binding affinities for FKBP51 and 52 according to a literature procedure (Kozany, C.; Marz, A.; Kress, C.; Hausch, F., Fluorescent probes to characterise FK506-binding proteins. Chembiochem 2009, 10, (8), 1402-10).
(§4) For fluorescence polarization assays the fluorescent ligand 2b was dissolved in HEPES (20 mm, pH 8), Triton-X100 (0.01%), at double the concentration required for the final sample. The target protein was also diluted in this assay buffer at double the highest concentration required for the final sample. This protein stock was used for a 1:1 serial dilution.
(§5) The fluorescent ligand 2b was diluted in assay buffer to a concentration double the final concentration (20 nM 2b). The inventive compound was dissolved in DMSO to reach a 100-times concentrated stock solution. This was used for a 1:1 serial dilution in DMSO. Every sample of this serial dilution was diluted by a factor of 50 in assay buffer supplemented with ligand 2b to achieve a 2× concentrated mixture of ligand 2b and the inventive compound. To this competitive ligand double the protein concentration for 2b assay: FKBP51FK1 560 nM (2×280 nM) or FKBP52FK1 800 nM (2×400 nM) diluted in assay buffer was added.
(§6) The samples were transferred to black 384-well assay plates (No.: 3575; Corning Life Sciences). After incubation at room temperature for 30 min the fluorescence anisotropy was measured (GENios Pro, Tecan, Männedorf, Switzerland) by using an excitation filters of 485/20 nm and emission filters of 535/25 nm. The binding assays were performed in duplicates in the plate format.
(§7) The competition curves were analyzed by using SigmaPlot9. Data were fitted to a four parameter logistic curve to deduce the IC50 values. For the analysis of K1 values, data were fitted to the following equation (Z. X. Wang, FEBS Lett. 1995, 360, 111-114). A=(Amax−Amin)/[L]t×(([L]t×((2×((Klig+Kcomp+[L]t+[I]t−[R]t)^2−3×(Kcomp×([L]t−[R]t)+Klig×([I]t−[R]t)+[…]))^0.5×COS(ARCCOS((−2×(Klig+Kcomp+[L]t+[I]t−[R]t)^3+9×(Klig+Kcomp+[L]t+[I]t−[R]t)×(Kcomp×([L]t−[R]t)+Klig×([I]t−[R]t)+Klig×Kcomp)−27×(−1×Klig×Kcomp×[R]t))/(2×((((Klig+Kcomp+[L]t+[I]t−[R]t)^2−3×(Kcomp×([L]t−[R]t)+Klig×([I]t−[R]t)+Klig×Kcomp))^3)^0.5)))/3))−(Klig+Kcomp+[L]t+[I]t−[R]t)))/((3×Klig)+((2×((Klig+Kcomp+[L]t+[I]t−[R]t)^2−3×(Kcomp×([L]t−[R]t)+Klig×([I]t−[R]t)+Klig×Kcomp))^0.5×COS(ARCCOS((−2×(Klig+Kcomp+[L]t+[I]t−[R]t)^3+9×(Klig+Kcomp+[L]t+[I]t−[R]t)×(Kcomp×([L]t−[R]t)+Klig×([I]t−[R]t)+Klig×Kcomp)−27×(−1×Klig×Kcomp×[R]t))/(2×((((Klig+Kcomp+[L]t+[I]t−[R]t)^2−3×(Kcomp×([L]t−[R]t)+Klig×([I]t−[R]t)+Klig×Kcomp))^3)^0.5)))/3))−(Klig+Kcomp+[L]t+[I]t−[R]t)))+Amin
(§8) In this equation Klig and Kcomp stand for the Kd values of the used tracer or competing inhibitor, [I]t is referring to the total concentration of the titrated inhibitor.

FKBP52 = target: T2, FKBP52 (Homo sapiens, UniProt Q02790); experiment: Fluorescence polarization (FP) assay, binding to the FK506-binding domain of FKBP52; conditions: FK506-binding domain of FKBP52 (FKBP52FK1), competition with fluorescent ligand 2b
T2 sequence (Q02790 50-138 limits assumed): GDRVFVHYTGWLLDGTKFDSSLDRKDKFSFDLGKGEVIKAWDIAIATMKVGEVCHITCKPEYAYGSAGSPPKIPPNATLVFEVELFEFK
Procedure: as §1, §2, §3, §4, §5, §6, §7, §8

| Compound | Ki (FKBP51) [nM] | Ki (FKBP52) [nM] |
| --- | --- | --- |
| COc1ccc(OCCN2C[C@H](C[C@H](C)O)C3CCCC(C2=O)N3S(=O)(=O)c2cc(Cl)cc(Cl)c2)cc1OC (single isomer, unassigned) [Compound D4] | ≤ 100 | ≤ 100 |
| COc1ccc(OCCN2C[C@H](C[C@H](C)O)C3CCCC(C2=O)N3S(=O)(=O)c2cc(Cl)cc(Cl)c2)cc1OC (single isomer, unassigned) [Compound D5] | ≤ 100 | ≤ 100 |
| COCCN1C[C@H](C(C)O)C2CCCC(C1=O)N2S(=O)(=O)c1cc(Cl)cc(Cl)c1 (stereo in doubt) [Compound B6, (1S,5S,6R)-10-((3,5-dichlorophenyl)sulfonyl)-5-((R)-1-hydroxyethyl)-3-(2-methoxyethyl)-3,10-diazabicyclo[4.3.1]decan-2-one] | ≤ 100 | ≤ 100 |
| COCCN1CC(CO)C2CCCC(C1=O)N2S(=O)(=O)c1cc(Cl)cc(Cl)c1 (stereo in doubt) [Compound B13, (1S,5R,6R)-10-((3,5-dichlorophenyl)sulfonyl)-5-(hydroxymethyl)-3-(2-methoxyethyl)-3,10-diazabicyclo[4.3.1]decan-2-one] | ≤ 100 | 100 to 500 |
| COCCN1CC(COC)C2CCCC(C1=O)N2S(=O)(=O)c1cc(Cl)cc(Cl)c1 (stereo in doubt) [Compound B14, (1S,5R,6R)-10-((3,5-dichlorophenyl)sulfonyl)-3-(2-methoxyethyl)-5-(methoxymethyl)-3,10-diazabicyclo[4.3.1]decan-2-one] | ≤ 100 | 100 to 500 |
| O=C1C2CCCC(C(CO)CN1CCO)N2S(=O)(=O)c1cc(Cl)cc(Cl)c1 (stereo in doubt) [Compound C1, (1S,5R,6R)-10-((3,5-dichlorophenyl)sulfonyl)-3-(2-hydroxyethyl)-5-(hydroxymethyl)-3,10-diazabicyclo[4.3.1]decan-2-one] | ≤ 100 | ≤ 100 |
| COc1ccc(OCCN2C[C@H](C(C)O)C3CCCC(C2=O)N3S(=O)(=O)c2cc(Cl)cc(Cl)c2)cc1OC (stereo in doubt) [Compound D6, (1S,5S,6R)-10-((3,5-dichlorophenyl)sulfonyl)-3-(2-(3,4-dimethoxyphenoxy)ethyl)-5-((R)-1-hydroxyethyl)-3,10-diazabicyclo[4.3.1]decan-2-one] | ≤ 100 | ≤ 100 |
| COc1ccc(OCCN2C[C@H](C(C)O)C3CCCC(C2=O)N3S(=O)(=O)c2cc(Cl)cc(Cl)c2)cc1OC (stereo in doubt) [Compound D7, (1S,5S,6R)-10-((3,5-dichlorophenyl)sulfonyl)-3-(2-(3,4-dimethoxyphenoxy)ethyl)-5-((R)-1-hydroxyethyl)-3,10-diazabicyclo[4.3.1]decan-2-one] | ≤ 100 | ≤ 100 |
| C=CC1CNC(=O)C2CCCC1N2S(=O)(=O)c1cc(Cl)cc(Cl)c1 (stereo in doubt) [Compound I8, (1S,5R,6R)-10-((3,5-dichlorophenyl)sulfonyl)-5-vinyl-3,10-diazabicyclo[4.3.1]decan-2-one] | 500 to 1000 | 500 to 1000 |
| C=CC1CN(CCCOCc2ccccc2)C(=O)C2CCCC1N2S(=O)(=O)c1cc(Cl)cc(Cl)c1 (stereo in doubt) [Compound J1, (1S,5R,6R)-3-(3-(benzyloxy)propyl)-10-((3,5-dichlorophenyl)sulfonyl)-5-vinyl-3,10-diazabicyclo[4.3.1]decan-2-one] | 100 to 500 | 100 to 500 |
| C=CC1CN(CCCOC)C(=O)C2CCCC1N2S(=O)(=O)c1cc(Cl)cc(Cl)c1 (stereo in doubt) [Compound J2, (1S,5R,6R)-10-((3,5-dichlorophenyl)sulfonyl)-3-(3-methoxypropyl)-5-vinyl-3,10-diazabicyclo[4.3.1]decan-2-one] | 500 to 1000 | 500 to 1000 |
| C=CC1CN(Cc2ccccn2)C(=O)C2CCCC1N2S(=O)(=O)c1cc(Cl)cc(Cl)c1 (stereo in doubt) [Compound J4, (1S,5R,6R)-10-((3,5-dichlorophenyl)sulfonyl)-3-(pyridin-2-ylmethyl)-5-vinyl-3,10-diazabicyclo[4.3.1]decan-2-one] | 100 to 500 | 100 to 500 |
| COCCCN1CC(CO)C2CCCC(C1=O)N2S(=O)(=O)c1cc(Cl)cc(Cl)c1 (stereo in doubt) [Compound J6, (1S,5R,6R)-10-((3,5-dichlorophenyl)sulfonyl)-5-(hydroxymethyl)-3-(3-methoxypropyl)-3,10-diazabicyclo[4.3.1]decan-2-one] | 100 to 500 | 500 to 1000 |
| C=CC1CN(CC(=O)O)C(=O)C2CCCC1N2S(=O)(=O)c1cc(Cl)cc(Cl)c1 (stereo in doubt) [Compound J10, 2-((1S,5R,6R)-10-((3,5-dichlorophenyl)sulfonyl)-2-oxo-5-vinyl-3,10-diazabicyclo[4.3.1]decan-3-yl)acetic acid] | 100 to 500 | 100 to 500 |
| C=CC1CN(CC(N)=O)C(=O)C2CCCC1N2S(=O)(=O)c1cc(Cl)cc(Cl)c1 (stereo in doubt) [Compound J11, 2-((1S,5R,6R)-10-((3,5-dichlorophenyl)sulfonyl)-2-oxo-5-vinyl-3,10-diazabicyclo[4.3.1]decan-3-yl)acetamide] | 100 to 500 | 100 to 500 |
| C#CCN1CC(C=C)C2CCCC(C1=O)N2S(=O)(=O)c1cc(Cl)cc(Cl)c1 (stereo in doubt) [Compound J12, (1S,5R,6R)-10-((3,5-dichlorophenyl)sulfonyl)-3-(prop-2-yn-1-yl)-5-vinyl-3,10-diazabicyclo[4.3.1]decan-2-one] | 100 to 500 | 100 to 500 |
| C=CC1CN(Cc2c[nH]nn2)C(=O)C2CCCC1N2S(=O)(=O)c1cc(Cl)cc(Cl)c1 (stereo in doubt) [Compound J13, (1S,5R,6R)-3-((1H-1,2,3-triazol-4-yl)methyl)-10-((3,5-dichlorophenyl)sulfonyl)-5-vinyl-3,10-diazabicyclo[4.3.1]decan-2-one] | ≤ 100 | ≤ 100 |
| C=CC1CN(Cc2cnccn2)C(=O)C2CCCC1N2S(=O)(=O)c1cc(Cl)cc(Cl)c1 (stereo in doubt) [Compound J14, (1S,5R,6R)-10-((3,5-dichlorophenyl)sulfonyl)-3-(pyrazin-2-ylmethyl)-5-vinyl-3,10-diazabicyclo[4.3.1]decan-2-one] | 100 to 500 | 100 to 500 |
| C=CC1CN(CC#N)C(=O)C2CCCC1N2S(=O)(=O)c1cc(Cl)cc(Cl)c1 (stereo in doubt) [Compound J16, 2-((1S,5R,6R)-10-((3,5-dichlorophenyl)sulfonyl)-2-oxo-5-vinyl-3,10-diazabicyclo[4.3.1]decan-3-yl)acetonitrile] | 100 to 500 | 100 to 500 |
| C=CC1CN(CCNC)C(=O)C2CCCC1N2S(=O)(=O)c1cc(Cl)cc(Cl)c1 (stereo in doubt) [Compound J19, (1S,5R,6R)-10-((3,5-dichlorophenyl)sulfonyl)-3-(2-(methylamino)ethyl)-5-vinyl-3,10-diazabicyclo[4.3.1]decan-2-one] | 100 to 500 | 100 to 500 |
